The record followed here is patent US4609736A, “Rhodanines useful as a therapeutic agent for diabetic complications” (Kaken Pharmaceutical Co., Ltd., priority 1983, dated 1986).

One series addresses T1, aldose reductase (Rattus norvegicus, UniProt P07943).
T1 construct: the supernatant was used as the crude enzyme solution; from tissue; host or cells: eye lens of male Wistar rats, 10,000 g supernatant of the homogenate
The experiment in a line: Aldose reductase inhibiting activity. The class given is biochemical, rat (Wistar strain male, eye lens). The note with it: rat lens crude enzyme; DL-glyceraldehyde 10 mM, NADPH 0.104 mM, pH 6.2; Table 3; read-out: IC50 (50% inhibition concentration), aldose reductase. On the procedure: Thus, Wistar strain male rats were sacrificed by decapitation, the lenses were excised and homogenized with a 0.1M phosphate buffer [pH 6.8; containing 1 mM of mercaptoethanol and 1 mM of nicotinamide-adenine dinucleotide phosphate (NADP)]. The homogenate was then centrifuged at 10,000 g for 15 minutes and the supernatant was used as the crude enzyme solution.
To this buffer solution, there was added 15 μl of each of solutions of each test compound in varied concentrations, followed by addition of 25 μl of the crude enzyme solution prepared in advance, to thereby initiate the reaction.

Series [1] relates to thrombin-induced aggregation of washed rabbit platelets. Nature of the series: Platelet aggregation inhibiting activity (thrombin-induced aggregation of washed rabbit platelets). Type of series: cell-based, rabbit (albino, white local breed). The note with it: for pIC50: Oryctolagus cuniculus, Platelet, Table 2; for platelet aggregation inhibiting activity relative to Dipyridamole (Persantine): times that of Dipyridamole. On the procedure:
Blood samples were collected from the auricular blood vessel of albino rabbits (white local breed), and washed platelets were prepared therefrom by the method of Baenziger et al. [N. L. Baenziger and P. W. Majerus, Methods in Enzymology, 31, 149 to 155 (1974)]. The platelets were suspended in a 15 mM Tris-hydrochloric acid buffer in a final concentration of 6×10^8 cells/ml (Tris: tris(hydroxymethyl)aminomethane). Each test compound was added thereto and incubation was carried out at 37° C. for 2 minutes. Then, the platelets were stimulated by addition of thrombin (final concentration 0.2 unit/ml; made by Mochida Pharmaceutical Co.) and the aggregation inhibiting activity was estimated by observation of the aggregation reaction using an aggregometer (made by Briston Co.).
The results obtained are shown in Table 2 in terms of IC50 (50% inhibition concentration in M).

Series [2] can be described thus: Acute toxicity in mice (oral). The conditions noted are these: mouse, in vivo, oral gavage in 10% gum arabic, 2 weeks.
[3] abbreviates: 2 min, washed rabbit platelets 6×10^8 cells/ml, thrombin 0.2 unit/ml, 37° C., 2 minutes incubation, read-out: IC50 (50% inhibition concentration), platelet aggregation.
The mark [4] stands for this setting: read-out: concentration that inhibited the thrombin-induced aggregation of washed rabbit platelets by 50%.

pIC50: −log10 of the molar value. Read-outs that look alike come from different tables or passages of the source.

For `CCC=C1SC(=S)N(CC(=O)O)C1=O` [Compound No. 1, 3-Carboxymethyl-5-propylidenerhodanine], the pIC50 at aldose reductase was 6.70; in series [1] (setting [3]), less than 3.52.

For `C=CC=C1SC(=S)N(CC(=O)O)C1=O` [Compound No. 6, 3-Carboxymethyl-5-allylidenerhodanine], the pIC50 at aldose reductase is 6.12; in series [1] (setting [3]), 4.52; in series [1] (setting [4]), 4.40 to 4.70. Also, in series [1], the “platelet aggregation inhibiting activity (in words)” value is listed as “noticeably strong platelet aggregation inhibiting activity”. Moreover, the “platelet aggregation inhibiting activity relative to Dipyridamole (Persantine)” value in series [1] is “about 10 times”.

For the compound `CC=CC=C1SC(=S)N(CC(=O)O)C1=O` [Compound No. 7, 3-Carboxymethyl-5-(2-butenylidene)rhodanine], the results for the pIC50 (at aldose reductase; in series [1] (setting [3]); in series [1] (setting [4])) were 7.15, 4.70 and 4.40 to 4.70, respectively. Further, the “platelet aggregation inhibiting activity (in words)” value in series [1] is given as “noticeably strong platelet aggregation inhibiting activity”. The “platelet aggregation inhibiting activity relative to Dipyridamole (Persantine)” value in series [1] is recorded as “about 10 times”. For the same compound, in series [2], the LD50 at 336 h is 3500 to 5000 mg/kg.

Regarding `O=C(O)CN1C(=O)C(=CC=CCCl)SC1=S` [Compound No. 8, 3-Carboxymethyl-5-(4-chloro-2-butenylidene)rhodanine], the pIC50 is 6.89 on aldose reductase, 4.70 in series [1] (setting [3]) and 4.40 to 4.70 in series [1] (setting [4]). Moreover, in series [1], the “platelet aggregation inhibiting activity (in words)” value is “noticeably strong platelet aggregation inhibiting activity”. In addition, the “platelet aggregation inhibiting activity relative to Dipyridamole (Persantine)” value in series [1] is “about 10 times”.

`CCCC=CC=C1SC(=S)N(CC(=O)O)C1=O` [Compound No. 10, 3-Carboxymethyl-5-(2-hexenylidene)rhodanine]: the pIC50 was 7.40 on aldose reductase, 4.52 in series [1] (setting [3]) and 4.40 to 4.70 in series [1] (setting [4]). The “platelet aggregation inhibiting activity (in words)” value in series [1] was “noticeably strong platelet aggregation inhibiting activity”. In addition, the “platelet aggregation inhibiting activity relative to Dipyridamole (Persantine)” value in series [1] is “about 10 times”. This compound showed a 50% lethal dose (LD50) at 336 h in series [2] of 3500 to 5000 mg/kg.

With `CC=CC=CC=C1SC(=S)N(CC(=O)O)C1=O` [Compound No. 11, 3-Carboxymethyl-5-(2,4-hexadienylidene)rhodanine], the pIC50 at aldose reductase was 7.34; in series [1] (setting [3]), 4.70; in series [1] (setting [4]), 4.40 to 4.70. The “platelet aggregation inhibiting activity (in words)” value in series [1] was “noticeably strong platelet aggregation inhibiting activity”. For the same compound, the “platelet aggregation inhibiting activity relative to Dipyridamole (Persantine)” value in series [1] is “about 10 times”. The compound also yielded a 50% lethal dose (LD50) at 336 h in series [2] of 3500 to 5000 mg/kg.

In the case of `CC(C)=CCCC(C)=CCCC(C)=CCCC(C)=CC=C1SC(=S)N(CC(=O)O)C1=O` [Compound No. 13, 3-Carboxymethyl-5-(3,7,11,15-tetramethyl-2,6,10,14-hexadecatetraenylidene)rhodanine], the values for the pIC50 (at aldose reductase; in series [1] (setting [3]); in series [1] (setting [4])) were 6.19, 4.40 and 4.40 to 4.70, respectively. Also, the “platelet aggregation inhibiting activity (in words)” value in series [1] is recorded as “noticeably strong platelet aggregation inhibiting activity”. Besides, the “platelet aggregation inhibiting activity relative to Dipyridamole (Persantine)” value in series [1] is “about 10 times”. Besides, the median lethal dose (LD50) at 336 h in series [2] fell in the range of 3500 to 5000 mg/kg.

With `O=C(O)CN1C(=O)C(=CCCCCl)SC1=S` [compound 2, 3-Carboxymethyl-5-(4-chlorobutylidene)rhodanine], the pIC50 at aldose reductase is 6.85; in series [1] (setting [3]), less than 3.52.

Turning to `CC(C)(C)C=C1SC(=S)N(CC(=O)O)C1=O` [compound 3, 3-Carboxymethyl-5-(2,2-dimethylpropylidene)rhodanine], the values for the pIC50 (on aldose reductase; in series [1] (setting [3])) were 7.00 and less than 3.52, respectively.

`CCCCCCCCCCC=C1SC(=S)N(CC(=O)O)C1=O` [compound 4, 3-Carboxymethyl-5-undecylidenerhodanine]: the pIC50 at aldose reductase was 6.52; in series [1] (setting [3]), less than 3.52.

For the compound `CCCCCC=C1SC(=S)N(CC(=O)O)C1=O` [compound 5, 3-Carboxymethyl-5-n-hexylidenerhodanine], the pIC50 was 6.89 on aldose reductase and less than 3.52 in series [1] (setting [3]).

In the case of `CC(C)=CC=C1SC(=S)N(CC(=O)O)C1=O` [compound 9, 3-Carboxymethyl-5-(3-methyl-2-butenylidene)rhodanine], the pIC50 at aldose reductase is 7.00; in series [1] (setting [3]) it was less than 3.40.

On to `CC(C)=CCCC(C)=CC=C1SC(=S)N(CC(=O)O)C1=O` [compound 12, 3-Carboxymethyl-5-(3,7-dimethyl-2,6-octadienylidene)rhodanine], for which the pIC50 in series [1] (setting [3]) is less than 3.52. Also, in series [2], the LD50 at 336 h is 3500 to 5000 mg/kg.
